These results are taken from US7256178B2, “Physiologically active substances” (priority 2002, dated 2007).

Series [1] in a line: Physicochemical properties: solubility.
The subject of series [2] is VEGF promoter. The series is described as follows: VEGF transcription inhibitory activity (VEGF-PLAP reporter, U251/1-8 cells under hypoxic conditions). In kind it is cell-based. Particulars: Homo sapiens, U-251, hypoxic (2% O2) incubator 18 hours, n=2 to 3. The text has this: In order to prepare a reporter system in which transcription from a VEGF promoter is reflected, a VEGF promoter sequence was cloned and inserted into a placental alkaline phosphatase (PLAP) vector to construct a reporter vector.
In order to obtain a promoter region of human VEGF, a VEGF genome was cloned from a phage library. Based on VEGF cDNA (GenBank accession number: X62568), a PCR primer in the sequence described as SEQ ID NO: 1 or SEQ ID NO: 2 was designed to conduct PCR, thereby obtaining about a fragment of 340 bp. A human genomic phage library (human genomic library, Clontech) was screened using this fragment as a probe to obtain pUC18-VEGFA containing a VEGF5′ franking region of about 5.4 kb. This pUC18-VEGFA was cut with Kpn I/Nhe I to obtain a VEGF promoter region of about 2.3 kb, and the region was inserted into the multicloning site Kpn I/Nhe I of the placental alkaline phosphatase (PLAP) reporter vector (Goto et al., Mol. Pharmacol., 49, 860-873, 1996) to construct a VEGF-PLAP vector.
The above-described VEGF-PLAP vector was introduced into U251 cells cultured in a Dulbecco's modified Eagle's medium containing 10% fetal bovine serum (DMEM, manufactured by Sigma Co.), and cultured in the presence of 1 mg/mL G418 (Merck & Co., Inc.) to establish a G418-resistant stable clone (U251/1-8 cells).
As in a report by Minchenko et al. (Cell. Mol. Biol. Res., 40, 35-39, 1994), U251/1-8 cells were confirmed to be a reporter system which secretes PLAP into a culture medium under hypoxic conditions (2% O2 incubator), and in which transcription from a VEGF promoter is reflected. A compound inhibiting VEGF production induced by hypoxic stimulation was screened using this clone.
In order to eliminate influence of the alkali phosphatase in the serum, the U251/1-8 cells were washed with a sufficient amount of PBS (Phosphate buffered saline) twice, and treated at 65° C. for 20 minutes to inactivate the alkaline phosphatase in the serum. 4×10^4 cells/180 μL per well of the cells diluted in the DMEM culture medium containing 10% of this serum were plated in a 96-well plate.
The cells were cultured in a CO2 incubator (5% CO2) at 37° C. overnight, and 20 μL of the above-described culture solution containing the test compound at threefold serial dilutions was added. Subsequently, the cells were cultured in hypoxic (2% O2) incubator for 18 hours. To measure the PLAP activity in the culture supernatant liquid, 10 μL of the culture supernatant liquid was added to 50 μL of a 0.28 M Na2CO3—NaHCO3 buffer solution (pH 10.0, 8.0 mM MgSO4), and finally 50 μL of an alkaline phosphatase substrate (Lumistain, Genome Science Laboratories Co., Ltd.) was added thereto. After the reaction for one hour, chemiluminescence was detected using a microplate reader (PerkinElmer) to measure the PLAP activity as the alkaline phosphatase activity. The PLAP activity under normoxic conditions was defined as 0%, the PLAP activity of the cells when treated under hypoxic conditions was defined as 100%, and the concentration for inhibiting 50% of the PLAP activity was defined as the IC50 value of PLAP. The IC50 values of the 6-deoxy 11107D derivatives shown in examples were determined (n=2 to 3).

Series [3] relates to WiDr human colon cancer cells. In words: Action of inhibiting proliferation of WiDr human colon cancer cells (MTT). In kind it is cell-based. Particulars: 72 h, three days, n=2 to 3, read-out: WiDr human colon cancer cell proliferation inhibitory activity (IC50: nM). The protocol:
2×10^3 cells/well of WiDr human colon cancer cells cultured in a Dulbecco's modified Eagle's medium containing 10% fetal bovine serum, penicillin (100 units/mL) and streptomycin (100 μg/mL) (DMEM, manufactured by Sigma Co.) were plated in a 96-well plate. The cells were cultured in a CO2 incubator overnight, and 20 μL of the above-described culture solution containing the test compound at threefold serial dilutions was added for culturing the cells. After three days, 50 μL of a 3.3 mg/mL MTT solution was added, and the cells were further cultured for one hour. Then, formazan generated by reduction using living cells was extracted with 100 μL of DMSO to measure the absorbance (A540/A660), which was used as an index of the number of living cells.
The concentration for inhibiting 50% of proliferation of WiDr human colon cancer cells (IC50 value) of the compound of the formula (I) was determined (n=2 to 3).

Series [4] can be described thus: Stability in an aqueous solution (HPLC). In kind it is physicochemical. Particulars: pH 7 Britton-Robinson buffer solution, 25° C., 24 hours. The protocol:
The compound of the formula (I) was dissolved in DMSO at a concentration of 10 to 20 mM, and the solution was diluted with a pH 7 Britton-Robinson buffer solution to about 500-fold. This solution was used as a sample solution, and was incubated at 25° C. for 24 hours.
The sample solution before and after the incubation was analyzed using high-performance liquid chromatography to obtain a chromatogram. The percentage of the compound remaining in the sample solution after the incubation was determined from the peak area of the chromatogram.

The nature of series [5]: Body weight reduction (acute toxicity) in the WiDr nude mouse test. In kind it is in vivo. Particulars: 1.25 mg/kg/day intravenously, nude mice, day when body weights were lightest, relative to day of start of administration. On the procedure:
(§1) In order to examine the solid cancer growth inhibitory activity of the compound of the formula (I) in vivo, WiDr human colon cancer cells were subcutaneously implanted into the body of each nude mouse. […] The control group consisted of ten mice, and the 6-deoxy 11107D derivative-administration group consisted of five mice. The derivative was intravenously injected at 0.625 mg/kg/day, 1.25 mg/kg/day, 2.5 mg/kg/day, 5 mg/kg/day, or 10 mg/kg/day to each mouse of the administration group, and a vehicle was administered to each mouse of the control group.
(§2) The tumor volumes on the 15th day were measured to determine the relative tumor weight ratio (T/C %), based on the tumor weight of each mouse of the control group as 100%. The body weights on the day of the start of administration, 5th day, 8th day, 12th day and 15th (or 16th) day were measured to examine the relative body weight variations in the case of administering the representative compounds, based on the body weights on the day of the start of administration as 100%. The minimum relative body weight ratios, which are the relative body weight ratios on the day when the body weights were lightest, are shown in Table 3.

Series [6] deals with WiDr human colon tumors. In words: Solid cancer growth inhibitory action, WiDr cells subcutaneously implanted in nude mice. The class given is in vivo, nude mouse. The settings on record: 1.25 mg/kg/day intravenously, 15th day, control group as 100%. On the procedure:
as §1, §2

Take `CCC(O)C(C)C1OC1CC(C)/C=C/C=C(\C)C1OC(=O)CC(O)CCC(C)C(OC(C)=O)/C=C/C1C` (centres unmarked) [6-deoxy 11107B]: the “Solubility in organic solvents” value in series [1] (dimethyl sulfoxide, pyridine, methanol, acetone) was “soluble in dimethyl sulfoxide, pyridine, methanol, and acetone”. In addition, the Solubility in water entry in series [1] (water) is “poorly soluble in water”.
As to `CCC(O)C(C)C1OC1CC(C)(O)/C=C/C=C(\C)C1OC(=O)CC(O)CCC(C)C(OC(=O)N2CCN(C)CC2)/C=C/C1C` (centres unmarked) [Compound 18, (8E,12E,14E)-3,16,21-trihydroxy-6,10,12,16,20-pentamethyl-7-((4-methylpiperazin-1-yl)carbonyl)oxy-18,19-epoxytricosa-8,12,14-trien-11-olide], the IC50 came out at 1 nM in series [2] and 0.5 nM in series [3]. Also, the “Remaining percentage (%)” value in series [4] is listed as 95.0%.
For `CCC(O)C(C)C1OC1CC(C)(O)/C=C/C=C(\C)C1OC(=O)CC(O)CCC(C)C(OC(=O)N2CCCN(C)CC2)/C=C/C1C` (centres unmarked) [Compound 19, (8E,12E,14E)-3,16,21-trihydroxy-6,10,12,16,20-pentamethyl-7-((4-methylhomopiperazin-1-yl)carbonyl)oxy-18,19-epoxytricosa-8,12,14-trien-11-olide] the same measures were 1.1 nM, 0.3 nM and 95.5%.
As to `CCC(O)C(C)C1OC1CC(C)(O)/C=C/C=C(\C)C1OC(=O)CC(O)CCC(C)C(OC(=O)N(C)CCN(CC)CC)/C=C/C1C` (centres unmarked) [Compound 20, (8E,12E,14E)-7-(N-(2-(N′,N′-diethylamino)ethyl-N-methyl)carbamoyloxy)-3,16,21-trihydroxy-6,10,12,16,20-pentamethyl-18,19-epoxytricosa-8,12,14-trien-11-olide], the IC50 in series [2] is 1.1 nM; in series [3] it was 0.2 nM. Also, the “Remaining percentage (%)” value in series [4] came out at 95.6%.
Turning to `CCC(O)C(C)C1OC1CC(C)(O)/C=C/C=C(\C)C1OC(=O)CC(O)CCC(C)C(OC(=O)N2CCC(N3CCCCC3)CC2)/C=C/C1C` (centres unmarked) [Compound 21, (8E,12E,14E)-3,16,21-trihydroxy-6,10,12,16,20-pentamethyl-7-((4-(piperidin-1-yl)piperidin-1-yl)carbonyl)oxy-18,19-epoxytricosa-8,12,14-trien-11-olide], the IC50 worked out at 2 nM in series [2] and 0.6 nM in series [3]. Also, the “Remaining percentage (%)” value in series [4] came out at 94.8%.
As for `CCC(O)C(C)C1OC1CC(C)(O)/C=C/C=C(\C)C1OC(=O)CC(O)CCC(C)C(OC(=O)NCCN(CC)CC)/C=C/C1C` (centres unmarked) [Compound 22, (8E,12E,14E)-7-(N-(2-(N′,N′-diethylamino)ethyl)carbamoyloxy)-3,16,21-trihydroxy-6,10,12,16,20-pentamethyl-18,19-epoxytricosa-8,12,14-trien-11-olide], the IC50 in series [2] came out at 2.5 nM; in series [3], 1.1 nM. Moreover, the “Remaining percentage (%)” value in series [4] was determined as 95.4%.
`CCC(O)C(C)C1OC1CC(C)(O)/C=C/C=C(\C)C1OC(=O)CC(O)CCC(C)C(OC(=O)N2CCN(CC(C)(C)C)CC2)/C=C/C1C` (centres unmarked) [Compound 23, (8E,12E,14E)-7-((4-(2,2-dimethylpropyl)piperazin-1-yl)carbonyl)oxy-3,16,21-trihydroxy-6,10,12,16,20-pentamethyl-18,19-epoxytricosa-8,12,14-trien-11-olide]: the IC50 was 14.7 nM in series [2] and 3.8 nM in series [3].
With `CCC(O)C(C)C1OC1CC(C)(O)/C=C/C=C(\C)C1OC(=O)CC(O)CCC(C)C(OC(=O)N(C)C2CCN(C)CC2)/C=C/C1C` (centres unmarked) [Compound 29, (8E,12E,14E)-3,16,21-trihydroxy-6,10,12,16,20-pentamethyl-7-(N-methyl-N-(1-methylpiperidin-4-yl)carbamoyloxy)-18,19-epoxytricosa-8,12,14-trien-11-olide], the IC50 turned out to be 1.3 nM in series [2] and 0.3 nM in series [3].
Take `CCC(O)C(C)C1OC1CC(C)(O)/C=C/C=C(\C)C1OC(=O)CC(O)CCC(C)C(OC(=O)N2CCCN(C(C)C)CC2)/C=C/C1C` (centres unmarked) [Compound 39, (8E,12E,14E)-3,16,21-trihydroxy-7-((4-isopropylhomopiperazin-1-yl)carbonyl)oxy-6,10,12,16,20-pentamethyl-18,19-epoxytricosa-8,12,14-trien-11-olide]: the IC50 is 1.3 nM in series [2] and 0.5 nM in series [3]. Further, in series [4], the “Remaining percentage (%)” value came to 95.9%.
`CCC(O)C(C)C1OC1CC(C)(O)/C=C/C=C(\C)C1OC(=O)CC(O)CCC(C)C(OC(=O)N2CCCN(CC)CC2)/C=C/C1C` (centres unmarked) [Compound 43, (8E,12E,14E)-7-((4-ethylhomopiperazin-1-yl)carbonyl)oxy-3,16,21-trihydroxy-6,10,12,16,20-pentamethyl-18,19-epoxytricosa-8,12,14-trien-11-olide]: the “Minimum relative body weight ratio” value in series [5] is listed as 0.83. For the same compound, in series [6], the “WiDr human colon tumor growth inhibitory activity T/C(%)” value is recorded as 9%. The IC50 was 2.3 nM in series [2] and 0.5 nM in series [3]. For the same compound, the “Remaining percentage (%)” value in series [4] was 95.8%.
Turning to `CCC(O)C(C)C1OC1CC(C)(O)/C=C/C=C(\C)C1OC(=O)CC(O)CCC(C)C(OC(=O)N2CCN(C(C)C)CC2)/C=C/C1C` (centres unmarked) [Compound 44, (8E,12E,14E)-3,16,21-trihydroxy-7-((4-isopropylpiperazin-1-yl)carbonyl)oxy-6,10,12,16,20-pentamethyl-18,19-epoxytricosa-8,12,14.-trien-11-olide], the IC50 was 2.4 nM in series [2] and 0.6 nM in series [3]. Besides, the “Remaining percentage (%)” value in series [4] is on record as 95.4%.
